Holding throughout (type): cell-based
The test system of one assay is COLO205 (colon). In words: Inhibition of cell proliferation, CellTiter-Glo, COLO205. The following applies: Homo sapiens, COLO 205, 72 h. A digest of the protocol:
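Exponentially growing COLO205 cells in medium with 10% FBS were plated below 2000 cells/well at 37 °C, 5% CO2. Untreated wells served as controls.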
(In ATP-based viability assays light output follows the ATP content of the culture.)

Assay [1] deals with NCI-H929 (multiple myeloma). In words: Inhibition of cell proliferation, CellTiter-Glo, NCI-H929. The following applies: Homo sapiens, 72 h. The method in brief:
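Cells were grown in medium with 10% FBS at 37° C, 5% CO2. Cell number was read as CellTiter-Glo luminescence (cellular ATP), with untreated wells as control.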

Assay [2] has as its target T1, human IGF-1R (NIH-3T3 cells over expressing human IGF-1R) (Homo sapiens, UniProt P08069).
T1 construct: expressed in transfected cells; host or cells: NIH-3T3 (mouse fibroblasts)
In words: IGF-1R cellular autophosphorylation (DELFIA). The following applies: IGF-1 stimulated. A digest of the protocol:
(§1)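 Receptor-overexpressing NIH-3T3, 10% FBS, 37 °C; cpd 30 uM–1.5 nM × 2 h; stim IGF-1 30 ng/mL (IGF-1R) or insulin 3 ug/mL (IR), 15 min; lysate DELFIA, Eu anti-pTyr; % of stimulated signal.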

The target of assay [3] is T2, IR (NIH-3T3 cells over expressing human IGF-1R or IR) (Homo sapiens, UniProt P06213).
T2 construct: expressed in transfected cells; host or cells: NIH-3T3 (mouse fibroblasts)
In words: IR cellular autophosphorylation (DELFIA). As to conditions: NIH-3T3 cells over expressing IR, insulin stimulated. A digest of the protocol: as §1

Molecules are shown by their SMILES. pIC50: −log10 of the molar value. A value given as a limit tells only on which side of the number the result lay.

T2 sequence (P06213 28-1382): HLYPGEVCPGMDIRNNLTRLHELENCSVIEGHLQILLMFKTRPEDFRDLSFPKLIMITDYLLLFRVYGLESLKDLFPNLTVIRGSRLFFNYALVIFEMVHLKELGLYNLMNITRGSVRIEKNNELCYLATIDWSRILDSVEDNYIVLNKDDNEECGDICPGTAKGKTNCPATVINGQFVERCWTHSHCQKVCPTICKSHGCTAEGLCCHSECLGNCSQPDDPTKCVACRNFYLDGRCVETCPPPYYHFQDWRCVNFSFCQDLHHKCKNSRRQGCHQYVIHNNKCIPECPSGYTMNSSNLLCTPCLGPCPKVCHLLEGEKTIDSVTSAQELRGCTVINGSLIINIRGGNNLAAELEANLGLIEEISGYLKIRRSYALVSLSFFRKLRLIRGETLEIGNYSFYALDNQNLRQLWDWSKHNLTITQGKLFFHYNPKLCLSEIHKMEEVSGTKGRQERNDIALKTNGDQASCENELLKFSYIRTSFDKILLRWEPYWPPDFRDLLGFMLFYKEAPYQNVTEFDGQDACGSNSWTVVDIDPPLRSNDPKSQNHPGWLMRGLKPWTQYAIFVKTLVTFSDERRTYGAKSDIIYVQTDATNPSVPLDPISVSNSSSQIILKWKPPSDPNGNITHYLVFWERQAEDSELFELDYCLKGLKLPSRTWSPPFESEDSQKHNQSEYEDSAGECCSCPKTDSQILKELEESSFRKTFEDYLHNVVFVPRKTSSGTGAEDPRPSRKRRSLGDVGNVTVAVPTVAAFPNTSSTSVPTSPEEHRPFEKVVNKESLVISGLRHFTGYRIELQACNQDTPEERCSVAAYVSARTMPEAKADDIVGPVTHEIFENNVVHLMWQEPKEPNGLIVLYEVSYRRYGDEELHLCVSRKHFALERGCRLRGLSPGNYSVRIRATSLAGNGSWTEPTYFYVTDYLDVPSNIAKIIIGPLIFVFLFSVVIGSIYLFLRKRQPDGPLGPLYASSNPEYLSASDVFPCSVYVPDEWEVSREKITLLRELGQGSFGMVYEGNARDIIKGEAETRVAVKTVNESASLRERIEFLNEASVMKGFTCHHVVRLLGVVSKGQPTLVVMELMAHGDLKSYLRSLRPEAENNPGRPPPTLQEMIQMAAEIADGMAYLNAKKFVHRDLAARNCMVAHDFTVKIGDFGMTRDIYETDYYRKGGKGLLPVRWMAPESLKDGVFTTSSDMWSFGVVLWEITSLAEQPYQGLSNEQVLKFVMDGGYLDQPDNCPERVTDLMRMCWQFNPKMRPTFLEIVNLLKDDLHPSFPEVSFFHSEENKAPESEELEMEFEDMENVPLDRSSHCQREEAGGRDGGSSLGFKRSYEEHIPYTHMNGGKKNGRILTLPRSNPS
T1 sequence (P08069 31-1367): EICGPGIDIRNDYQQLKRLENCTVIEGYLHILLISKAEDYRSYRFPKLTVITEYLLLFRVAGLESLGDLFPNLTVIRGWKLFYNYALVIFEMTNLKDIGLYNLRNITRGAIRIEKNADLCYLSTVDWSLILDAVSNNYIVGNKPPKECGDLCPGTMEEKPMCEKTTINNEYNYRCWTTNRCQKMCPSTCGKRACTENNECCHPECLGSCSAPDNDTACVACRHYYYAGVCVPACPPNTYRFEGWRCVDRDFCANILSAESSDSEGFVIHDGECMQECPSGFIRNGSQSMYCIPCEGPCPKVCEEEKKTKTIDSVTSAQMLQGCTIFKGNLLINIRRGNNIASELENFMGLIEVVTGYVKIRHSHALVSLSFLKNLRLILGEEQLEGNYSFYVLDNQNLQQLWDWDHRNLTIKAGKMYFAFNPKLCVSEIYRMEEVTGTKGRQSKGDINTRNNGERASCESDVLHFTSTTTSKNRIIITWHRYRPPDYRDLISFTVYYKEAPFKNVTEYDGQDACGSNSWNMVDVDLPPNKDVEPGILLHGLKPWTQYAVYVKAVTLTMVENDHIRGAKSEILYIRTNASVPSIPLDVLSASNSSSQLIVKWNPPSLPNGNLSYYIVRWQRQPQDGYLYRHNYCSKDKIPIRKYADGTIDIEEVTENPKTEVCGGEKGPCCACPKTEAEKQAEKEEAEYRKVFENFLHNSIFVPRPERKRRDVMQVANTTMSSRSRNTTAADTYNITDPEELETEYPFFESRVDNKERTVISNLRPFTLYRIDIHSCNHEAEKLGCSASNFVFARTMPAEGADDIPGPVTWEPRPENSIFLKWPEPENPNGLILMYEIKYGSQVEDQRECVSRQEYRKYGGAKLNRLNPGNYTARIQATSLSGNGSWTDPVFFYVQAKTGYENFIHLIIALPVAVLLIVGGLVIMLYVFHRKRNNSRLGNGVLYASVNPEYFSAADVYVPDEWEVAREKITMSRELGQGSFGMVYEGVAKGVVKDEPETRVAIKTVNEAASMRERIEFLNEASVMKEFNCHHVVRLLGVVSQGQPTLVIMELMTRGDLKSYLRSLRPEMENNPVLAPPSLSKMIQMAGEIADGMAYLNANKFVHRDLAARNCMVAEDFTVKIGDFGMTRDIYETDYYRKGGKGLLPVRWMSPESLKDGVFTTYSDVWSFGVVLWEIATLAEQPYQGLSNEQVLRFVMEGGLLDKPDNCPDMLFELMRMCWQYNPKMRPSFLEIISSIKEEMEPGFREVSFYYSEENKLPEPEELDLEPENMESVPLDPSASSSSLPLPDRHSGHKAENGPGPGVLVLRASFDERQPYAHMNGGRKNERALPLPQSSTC

The pIC50 is the IC50 on a negative log10 scale, so that one unit is a factor of ten. A low value points to a large IC50. As for `CCOc1cc(N2CCN(CCS(C)(=O)=O)CC2)ccc1Nc1nccc(-c2c(-c3ccc(OCC)c(C(=O)Nc4c(F)cccc4F)c3)nc3ccccn23)n1` [Example 144, N-(2,6-difluorophenyl)-2-(ethyloxy)-5-(3-{2-[(2-(ethyloxy)-4-{4-[2-(methylsulfonyl)ethyl)-1-piperazinyl}phenyl)amino]-4-pyrimidinyl}imidazo[1,2-a]pyridin-2-yl)benzamide], the pIC50 in the assay with COLO205 (colon) was more than 6.60; in assay [1], more than 6.60; in assay [2] it was more than 7.00; in assay [3], more than 7.00.
Turning to `COc1cc(N2CCC(N3CCN(CCF)CC3)CC2)c(OC)cc1Nc1nccc(-c2c(-c3cccc(C(=O)Nc4c(F)cccc4F)c3)nc3ccccn23)n1` [Example 111, N-(2,6-difluorophenyl)-3-[3-(2-{[4-{4-[4-(2-fluoroethyl)-1-piperazinyl]-1-piperidinyl}-2,5-bis(methyloxy)phenyl]amino}-4-pyrimidinyl)imidazo[1,2-a]pyridin-2-yl]benzamide], the pIC50 in the assay on COLO205 (colon) was 6.00 to 6.60; in assay [1], more than 6.60; in assay [2], more than 7.00; in assay [3], more than 7.00.
Regarding `COc1cc(N2CCC(N3CCN4CCOC[C@@H]4C3)CC2)ccc1Nc1nccc(-c2c(-c3cccc(C(=O)Nc4c(F)cccc4F)c3)nc3ccccn23)n1` [Example 87, N-(2,6-difluorophenyl)-3-[3-(2-{[4-{4-[(9aS)-hexahydropyrazino[2,1-c][1,4]oxazin-8(1H)-yl]-1-piperidinyl}-2-(methyloxy)phenyl]amino}-4-pyrimidinyl)imidazo[1,2-a]pyridin-2-yl]benzamide], the pIC50 with COLO205 (colon) was 6.00 to 6.60; in assay [1], more than 6.60; in assay [2], more than 7.00; in assay [3], more than 7.00.
As to `CCOc1cc(N2CCC(N3CCN(CCC(F)(F)F)CC3)CC2)ccc1Nc1nccc(-c2c(-c3cccc(C(=O)Nc4c(F)cccc4F)c3)nc3ccccn23)n1` [Example 118, N-(2,6-difluorophenyl)-3-(3-{2-[(2-(ethyloxy)-4-{4-[4-(3,3,3-trifluoropropyl)-1-piperazinyl]-1-piperidinyl}phenyl)amino]-4-pyrimidinyl}imidazo[1,2-a]pyridin-2-yl)benzamide], the pIC50 in the assay on COLO205 (colon) is 6.00 to 6.60; in assay [1], 6.00 to 6.60; in assay [2], 6.30 to 7.00; in assay [3], 6.30 to 7.00.
`CCOc1cc(C2CCN(CCS(C)(=O)=O)CC2)ccc1Nc1nccc(-c2c(-c3ccc(OCC)c(C(=O)Nc4c(F)cccc4F)c3)nc3ccccn23)n1` [Example 185, N-(2,6-difluorophenyl)-2-(ethyloxy)-5-(3-{2-[(2-(ethyloxy)-4-{1-[2-(methylsulfonyl)ethyl]-4-piperidinyl}phenyl)amino]-4-pyrimidinyl}imidazo[1,2-a]pyridin-2-yl)benzamide]: the pIC50 with COLO205 (colon) was more than 6.60; in assay [1], more than 6.60; in assay [2] it was more than 7.00; in assay [3], more than 7.00.
Turning to `CCOc1ccc(-c2nc3ccccn3c2-c2ccnc(Nc3ccc(N4CCN(CCOC)CC4)cc3OC)n2)cc1C(=O)Nc1c(F)cccc1F` [Example 238, N-(2,6-difluorophenyl)-2-(ethyloxy)-5-(3-{2-[(2-(methyloxy)-4-{4-[2-(methyloxy)ethyl]-1-piperazinyl}phenyl)amino]-4-pyrimidinyl}imidazo[1,2-a]pyridin-2-yl)benzamide], the negative-log IC50 (pIC50) in the assay on COLO205 (colon) was 6.00 to 6.60; in assay [1], more than 6.60; in assay [2], more than 7.00; in assay [3], more than 7.00.
With `CCOc1ccc(-c2nc3ccccn3c2-c2ccnc(Nc3cc(C)c(C4CCN(CCS(C)(=O)=O)CC4)cc3OC)n2)cc1C(=O)Nc1c(F)cccc1F` [Example 164, N-(2,6-difluorophenyl)-2-(ethyloxy)-5-(3-{2-[(5-methyl-2-(methyloxy)-4-{1-[2-(methylsulfonyl)ethyl]-4-piperidinyl}phenyl)amino]-4-pyrimidinyl}imidazo[1,2-a]pyridin-2-yl)benzamide], the pIC50 was more than 6.60 in the assay on COLO205 (colon), more than 6.60 in assay [1], more than 7.00 in assay [2] and more than 7.00 in assay [3].
Turning to `COc1cc(N2CCN(CCS(C)(=O)=O)CC2)c(Cl)cc1Nc1nccc(-c2c(-c3ccc(OC)c(C(=O)Nc4c(F)cccc4F)c3)nc3ccccn23)n1` [Example 213, 5-(3-{2-[(5-chloro-2-(methyloxy)-4-{4-[2-(methylsulfonyl)ethyl]-1-piperazinyl}phenyl)amino]-4-pyrimidinyl}imidazo[1,2-a]pyridin-2-yl)-N-(2,6-difluorophenyl)-2-(methyloxy)benzamide], the pIC50 was more than 6.60 in the assay on COLO205 (colon), more than 6.60 in assay [1], more than 7.00 in assay [2] and more than 7.00 in assay [3].
As to `CCOc1cc(N2CCC(N3CCN(S(C)(=O)=O)CC3)CC2)ccc1Nc1nccc(-c2c(-c3ccc(OCC)c(C(=O)Nc4c(F)cccc4F)c3)nc3ccccn23)n1` [Example 222, N-(2,6-difluorophenyl)-2-(ethyloxy)-5-(3-{2-[(2-(ethyloxy)-4-{4-[4-(methylsulfonyl)-1-piperazinyl]-1-piperidinyl}phenyl)amino]-4-pyrimidinyl}imidazo[1,2-a]pyridin-2-yl)benzamide], the pIC50 was more than 6.60 in the assay with COLO205 (colon), more than 6.60 in assay [1], more than 7.00 in assay [2] and more than 7.00 in assay [3].
For `COc1cc(C2CCN(CC(C)C)CC2)ccc1Nc1nccc(-c2c(-c3ccc(OC)c(C(=O)Nc4c(F)cccc4F)c3)nc3ccccn23)n1` [Example 160, N-(2,6-difluorophenyl)-2-(methyloxy)-5-{3-[2-({2-(methyloxy)-4-[1-(2-methylpropyl)-4-piperidinyl]phenyl}amino)-4-pyrimidinyl]imidazo[1,2-a]pyridin-2-yl}benzamide], the pIC50 is 6.00 to 6.60 in the assay on COLO205 (colon), more than 6.60 in assay [1], more than 7.00 in assay [2] and more than 7.00 in assay [3].
In the case of `COc1cc(N2CCC(N3CCN(CCS(C)(=O)=O)CC3)CC2)ccc1Nc1nccc(-c2c(-c3cccc(C(=O)Nc4c(F)cccc4F)c3)nc3c(C)cccn23)n1` [Example 67, N-(2,6-difluorophenyl)-3-[8-methyl-3-(2-{[2-(methyloxy)-4-(4-{4-[2-(methylsulfonyl)ethyl)-1-piperazinyl}-1-piperidinyl)phenyl]amino]-4-pyrimidinyl)imidazo[1,2-a]pyridin-2-yl]benzamide], the pIC50 in the assay on COLO205 (colon) is 6.00 to 6.60; in assay [1], 6.00 to 6.60; in assay [2] it was more than 7.00; in assay [3], 6.30 to 7.00.
On to `COc1cc(N2CCC(N3CCN4CCOC[C@@H]4C3)CC2)ccc1Nc1nccc(-c2c(-c3ccc(OC)c(C(=O)Nc4c(F)cccc4F)c3)nc3ccccn23)n1` [Example 88, N-(2,6-difluorophenyl)-5-[3-(2-{[4-{4-[(9aS)-hexahydropyrazino[2,1-c][1,4]oxazin-8(1H)-yl]-1-piperidinyl}-2-(methyloxy)phenyl]amino}-4-pyrimidinyl)imidazo[1,2-a]pyridin-2-yl]-2-(methyloxy)benzamide], for which the negative logarithm of the IC50 (pIC50) was less than 6.00 in the assay with COLO205 (colon), more than 6.60 in assay [1], more than 7.00 in assay [2] and more than 7.00 in assay [3].
Regarding `COc1cc(N2CCC(CCS(C)(=O)=O)CC2)ccc1Nc1nccc(-c2c(-c3cccc(C(=O)Nc4c(F)cccc4F)c3)nc3ccccn23)n1` [Example 202, N-(2,6-difluorophenyl)-3-(3-{2-[(2-(methyloxy)-4-{4-[2-(methylsulfonyl)ethyl)-1-piperidinyl}phenyl)amino]-4-pyrimidinyl]imidazo[1,2-a]pyridin-2-yl)benzamide], the pIC50 in the assay with COLO205 (colon) is 6.00 to 6.60; in assay [1], more than 6.60; in assay [2], 6.30 to 7.00; in assay [3] it was 6.30 to 7.00.
On to `COCCN1CCN(c2cc(OC)c(Nc3nccc(-c4c(-c5ccc(OC)c(C(=O)Nc6c(F)cccc6F)c5)nc5ccccn45)n3)cc2C)CC1` [Example 242, N-(2,6-difluorophenyl)-5-(3-{2-[(5-methyl-2-(methyloxy)-4-{4-[2-(methyloxy)ethyl]-1-piperazinyl}phenyl)amino]-4-pyrimidinyl}imidazo[1,2-a]pyridin-2-yl)-2-(methyloxy)benzamide], for which the pIC50 is 6.00 to 6.60 in the assay on COLO205 (colon), more than 6.60 in assay [1], more than 7.00 in assay [2] and more than 7.00 in assay [3].
As for `CCc1cc(Nc2nccc(-c3c(-c4ccc(OC)c(C(=O)Nc5c(F)cccc5F)c4)nc4ccccn34)n2)c(OC)cc1N1CCC(CCS(C)(=O)=O)CC1` [Example 207, N-(2,6-difluorophenyl)-5-(3-{2-[(5-ethyl-2-(methyloxy)-4-{4-[2-(methylsulfonyl)ethyl]-1-piperidinyl}phenyl)amino]-4-pyrimidinyl}imidazo[1,2-a]pyridin-2-yl)-2-(methyloxy)benzamide], the pIC50 is more than 6.60 in the assay on COLO205 (colon), more than 6.60 in assay [1], more than 7.00 in assay [2] and more than 7.00 in assay [3].
For the compound `COc1cc(N2CCN(CCS(C)(=O)=O)CC2)c(C)cc1Nc1nccc(-c2c(-c3cccc(C(=O)Nc4c(F)cccc4F)c3)nc3ccccn23)n1` [Example 148, N-(2,6-difluorophenyl)-3-(3-{2-[(5-methyl-2-(methyloxy)-4-{4-[2-(methylsulfonyl)ethyl]-1-piperazinyl}phenyl)amino]-4-pyrimidinyl}imidazo[1,2-a]pyridin-2-yl)benzamide], the pIC50 is more than 6.60 in the assay on COLO205 (colon), more than 6.60 in assay [1], more than 7.00 in assay [2] and more than 7.00 in assay [3].

(Values after patent US20100216779A1 (GLAXOSMITHKLINE LLC, priority 2007, published 2010).)
